Measurements as given in patent US6548241B1, “Storage solution containing photosensitizer for inactivation of biological contaminants” (Gambro, Inc., priority 2000, dated 2003).
Values after ≈ are worked out from the molar mass of the structure shown. Like-named read-outs stand apart in the source and are kept apart here.

Legend:
[1] = tested on: Staphylococcus aureus; assay: Log inactivation of S. aureus in platelet concentrate, irradiation at 80 J/cm^2
[2] = tested on: Staphylococcus epidermidis; assay: Log inactivation of S. epidermidis in platelet concentrate, irradiation at 80 J/cm^2
[3] = tested on: Listeria monocytogenes; assay: Log inactivation of Listeria monocytogenes in platelet concentrate, cuvette apparatus; assay type: cell-based
Description: Mixtures of platelet concentrates and platelet additive solutions are referred to herein as in “media.” Platelet concentrate without additive solution is referred to herein as in “plasma.” Both were spiked with Listeria monocytogenes. Vitamin K5 was then added to each in the amount of 300 μg/mL […]. Each was then exposed to UV, visible or room light in the cuvette apparatus of FIG. 5 with the results shown in Table 3.

[4] = assay type: physicochemical; conditions: for solubility thermodynamic at 1 h: thermodynamic from solid
Description: The mixture was agitated at room temperature for one hour and vortex mixed to ensure complete dissolution of the suspended material. […] This suspension was then centrifuged to remove undissolved material. The supernatant from this preparation was removed and analyzed using a spectrophotometer. The absorbance values of the solution were determined at 447 nm and 373 nm. From the extinction coefficients that were determined previously, it was possible to estimate the concentration of the saturated solution Solubility in ACD-A Anticoagulant The same procedure described above was repeated using ACD-A Anticoagulant.

[5] = Photodecomposition in ACD-A upon exposure to UV light (365 nm); conditions: for % of Initial, 373 nm / % of Initial, 447 nm: 63 μg/mL in ACD-A, UV 365 nm
[6] = tested on: herpes simplex virus type II (HSV-II); assay: Inactivation of HSV-II in platelet concentrates at varying photosensitizer concentrations; conditions: platelet concentrate, 80 J/cm^2, all three trials
[7] = tested on: HSV-II; assay: Inactivation of HSV-II in platelet concentrate and PC:media with ascorbate (log virus titre); conditions: 14 μM + 6 mM ascorbate

**Q.** With `Cc1cc2nc3[nH]c(=O)[nH]c(=O)c3nc2cc1C` [7-8-dimethyl alloxazine] as the compound, how does the “Log Inactivation (cfu/mL)” value ([1]; 7 μM in platelet concentrate) read?
**A.** The value was 1.6 Logs.

**Q.** And the “Log Inactivation (cfu/mL)” value ([2]; 7 μM in platelet concentrate)?
**A.** The value was 2.9 Logs.

**Q.** For `Cc1cc(N)c2ccccc2c1O` [K5, Vitamin K5], which “Log Inactivation (cfu/mL)” value ([3]; K5 300 μg/mL in Media (20:80 platelet concentrate:Isolyte S), UV 365 nm, 40 J/cm^2) is on record?
**A.** The value was 4.2 Logs.

**Q.** What about the “Log Inactivation (cfu/mL)” value ([3]; K5 300 μg/mL in Media, Room Light) of the same compound?
**A.** Its value is 0 Logs.

**Q.** What about the “Log Inactivation (cfu/mL)” value ([3]; K5 300 μg/mL in Media, VIS 419 nm, 40 J/cm^2) of the same compound?
**A.** The value was 4.2 Logs.

**Q.** And the “Log Inactivation (cfu/mL)” value ([3]; K5 300 μg/mL in Plasma (platelet concentrate without additive solution), UV 365 nm, 40 J/cm^2)?
**A.** Its value is 0.1 Logs.

**Q.** And the “Log Inactivation (cfu/mL)” value ([3]; K5 300 μg/mL in Plasma, Room Light)?
**A.** The value was 0 Logs.

**Q.** And the “Log Inactivation (cfu/mL)” value ([3]; K5 300 μg/mL in Plasma, VIS 419 nm, 40 J/cm^2)?
**A.** Its value is 0.1 Logs.

**Q.** Which results are given for `Cc1cc2nc3c(=O)[nH]c(=O)nc-3n(C[C@H](O)[C@H](O)[C@H](O)CO)c2cc1C` [7,8-dimethyl-10-ribityl isoalloxazine]?
**A.** solubility thermodynamic at 1 h ([4]; ACD-A Anticoagulant, aqueous buffer, ACD-A Anticoagulant, absorbance at 373 nm, read-out: Concentration (373) of saturated solution): 63 µg/mL (≈ 167 µM); solubility thermodynamic at 1 h ([4]; ACD-A Anticoagulant, aqueous buffer, ACD-A Anticoagulant, absorbance at 447 nm, read-out: Concentration (447) of saturated solution): 60.3 µg/mL (≈ 160 µM); Concentration (373) of saturated solution ([4]; ACD-A Anticoagulant, absorbance at 373 nm): 166 µM; Concentration (447) of saturated solution ([4]; ACD-A Anticoagulant, absorbance at 447 nm): 160 µM; solubility thermodynamic at 1 h ([4]; Isolyte S media, pH 7.4, saline or isotonic, Isolyte S, pH 7.4 media, room temperature, absorbance at 373 nm, read-out: Concentration (373) of saturated solution): 42 µg/mL (≈ 112 µM); solubility thermodynamic at 1 h ([4]; Isolyte S media, pH 7.4, saline or isotonic, Isolyte S, pH 7.4 media, room temperature, absorbance at 447 nm, read-out: Concentration (447) of saturated solution): 40.9 µg/mL (≈ 109 µM); Concentration (373) of saturated solution ([4]; Isolyte S, pH 7.4 media, room temperature, absorbance at 373 nm): 110 µM; Concentration (447) of saturated solution ([4]; Isolyte S, pH 7.4 media, room temperature, absorbance at 447 nm): 109 µM; % of Initial, 373 nm ([5]; Irradiation Time 0): 100%; % of Initial, 447 nm ([5]; Irradiation Time 0): 100%; % of Initial, 373 nm ([5]; Irradiation Time 5): 87.3%; % of Initial, 447 nm ([5]; Irradiation Time 5): 61.6%; % of Initial, 373 nm ([5]; Irradiation Time 10): 90.5%; % of Initial, 447 nm ([5]; Irradiation Time 10): 76.6%; % of Initial, 373 nm ([5]; Irradiation Time 15): 100%; % of Initial, 447 nm ([5]; Irradiation Time 15): 70%; decomposition of the reagent (absorption profile at 373 nm) ([5]; over the entire irradiation period): no significant decomposition; Log Inactivation (cfu/mL) ([1]; 10 μM in platelet concentrate): 1.9 Logs; Log Inactivation (cfu/mL) ([2]; 10 μM in platelet concentrate): 4.1 Logs; inactivation of HSV-II [6]: complete inactivation; log virus titre ([7]; 30:70 PC:Media (PASIII), UV+VIS 0 J/cm^2, 0.0 Minutes): 5.6; log virus titre ([7]; 30:70 PC:Media, UV+VIS 5 J/cm^2, 1.5 Minutes): 2.5; log virus titre ([7]; 30:70 PC:Media, UV+VIS 10 J/cm^2, 3.0 Minutes): 2.5; log virus titre ([7]; 30:70 PC:Media, UV+VIS 15 J/cm^2, 4.5 Minutes): 2.3; log virus titre ([7]; 30:70 PC:Media, UV+VIS 20 J/cm^2, 6.0 Minutes): 1.8; log virus titre ([7]; 30:70 PC:Media, UV+VIS 30 J/cm^2, 9.0 Minutes): 1.6; log virus titre ([7]; 90:10 PC:Media, UV+VIS 0 J/cm^2): 5.6; log virus titre ([7]; 90:10 PC:Media, UV+VIS 40 J/cm^2): 3.3

**Q.** With `Cc1cc2nc3c(=O)[nH]c(=O)nc-3n(C[C@H](O)[C@H](O)[C@H](O)COP(=O)(O)O)c2cc1C` [alloxazine mononucleotide] as the compound, how does the “Log Inactivation (cfu/mL)” value ([1]; 10 μM in platelet concentrate) read?
**A.** Its value is 1.6 Logs.

**Q.** What about the “Log Inactivation (cfu/mL)” value ([2]; 10 μM in platelet concentrate) of the same compound?
**A.** The value was 5.6 Logs.
